{
  "source": "ChEMBL document CHEMBL1140475",
  "about": "“Structure-activity relationship (SAR) investigations of substituted imidazole analogs as TRPV1 antagonists” (Bioorg Med Chem Lett, 2007)",
  "key": {"[1]": {"target": "T1, Transient receptor potential cation channel subfamily V member 1 (Rattus norvegicus, UniProt O35433)", "T1 sequence (O35433 whole entry)": "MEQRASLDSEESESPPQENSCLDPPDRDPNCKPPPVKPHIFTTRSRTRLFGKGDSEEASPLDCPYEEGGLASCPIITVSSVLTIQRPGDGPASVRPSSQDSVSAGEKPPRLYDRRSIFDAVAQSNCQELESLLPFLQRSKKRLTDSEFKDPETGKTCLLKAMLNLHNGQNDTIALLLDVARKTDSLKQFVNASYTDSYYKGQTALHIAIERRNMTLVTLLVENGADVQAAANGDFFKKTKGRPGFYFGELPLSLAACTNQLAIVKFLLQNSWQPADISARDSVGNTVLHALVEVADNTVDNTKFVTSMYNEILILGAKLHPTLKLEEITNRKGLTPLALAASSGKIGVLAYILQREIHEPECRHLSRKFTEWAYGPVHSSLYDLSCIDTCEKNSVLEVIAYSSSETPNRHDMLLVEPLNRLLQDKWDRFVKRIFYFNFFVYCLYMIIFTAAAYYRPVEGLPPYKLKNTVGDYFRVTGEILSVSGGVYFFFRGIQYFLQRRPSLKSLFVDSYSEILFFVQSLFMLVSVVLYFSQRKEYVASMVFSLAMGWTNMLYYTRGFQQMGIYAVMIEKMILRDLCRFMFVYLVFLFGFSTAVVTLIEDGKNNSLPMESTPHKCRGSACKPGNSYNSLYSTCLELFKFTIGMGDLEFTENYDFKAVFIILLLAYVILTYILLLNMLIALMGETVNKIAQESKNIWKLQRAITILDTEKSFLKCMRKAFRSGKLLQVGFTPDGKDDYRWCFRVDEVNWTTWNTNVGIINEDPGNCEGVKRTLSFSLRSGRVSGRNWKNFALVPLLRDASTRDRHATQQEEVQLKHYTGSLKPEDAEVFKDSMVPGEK", "assay": "Antagonist activity at rat TRPV1 expressed in CHO cells assessed blocking of acid-induced calcium influx at pH 5", "assay_type": "functional, cell-based"}, "[2]": {"assay": "AUC (0 to infinity) in Sprague-Dawley rat at 1 mg/kg, iv", "assay_type": "ADME, organism-based", "parameters": "time infinity, dose 1 mg/kg, route intravenous", "settings": "plasma"}, "[3]": {"assay": "Clearance in Sprague-Dawley rat at 1 mg/kg, iv", "assay_type": "ADME, organism-based", "parameters": "dose 1 mg/kg, route intravenous", "settings": "in vivo"}, "[4]": {"assay": "Half life in Sprague-Dawley rat at 1 mg/kg, iv", "assay_type": "ADME, organism-based", "parameters": "dose 1 mg/kg, route intravenous", "settings": "in vivo"}, "[5]": {"assay": "Volume of distribution at steady state in Sprague-Dawley rat at 1 mg/kg, iv", "assay_type": "ADME, organism-based", "parameters": "dose 1 mg/kg, route intravenous", "settings": "in vivo, read-out: Vdss"}, "[6]": {"assay": "Cmax in Sprague-Dawley rat at 5 mg/kg, po", "assay_type": "ADME, organism-based", "parameters": "dose 5 mg/kg, route oral", "settings": "in vivo"}, "[7]": {"assay": "Tmax in Sprague-Dawley rat at 5 mg/kg, po", "assay_type": "ADME, organism-based", "parameters": "dose 5 mg/kg, route oral", "settings": "in vivo"}, "[8]": {"assay": "AUC (0 to infinity) in Sprague-Dawley rat at 5 mg/kg, po", "assay_type": "ADME, organism-based", "parameters": "time infinity, dose 5 mg/kg, route oral", "settings": "plasma"}, "[9]": {"assay": "Bioavailability in Sprague-Dawley rat at 5 mg/kg", "assay_type": "ADME, organism-based", "settings": "in vivo"}, "[10]": {"target": "T1, Transient receptor potential cation channel subfamily V member 1", "assay": "Antagonist activity at rat TRPV1 expressed in CHO cells assessed blocking of capsaicin-induced calcium influx", "assay_type": "functional, cell-based"}},
  "data": [
    {"compound": "FC(F)(F)c1ccc(-c2[nH]c(N3CCN(c4ncccc4C(F)(F)F)CC3)nc2-c2ccccc2)cc1", "values": [
      {"measurement": "IC50", "setting": "[1]", "value": 216, "unit": "nM"},
      {"measurement": "AUC(0-inf)", "setting": "[2]", "value": 105, "unit": "ng·h/mL"},
      {"measurement": "clearance", "setting": "[3]", "value": 167, "unit": "mL/min/kg"},
      {"measurement": "half-life", "setting": "[4]", "value": 2.3, "unit": "h"},
      {"measurement": "Vd", "setting": "[5]", "value": 5, "unit": "L/kg"},
      {"measurement": "Cmax", "setting": "[6]", "value": 13, "unit": "ng/mL"},
      {"measurement": "Tmax", "setting": "[7]", "value": 1.3, "unit": "h"},
      {"measurement": "AUC(0-inf)", "setting": "[8]", "value": 30, "unit": "ng·h/mL"},
      {"measurement": "bioavailability", "setting": "[9]", "value": 6, "unit": "%"},
      {"measurement": "IC50", "setting": "[10]", "value": 107, "unit": "nM"}
    ]},
    {"compound": "Cc1nc(N2CCN(c3ncccc3C(F)(F)F)CC2)[nH]c1-c1ccc(C(F)(F)F)cc1", "values": [
      {"measurement": "IC50", "setting": "[1]", "value": "> 4000", "unit": "nM"},
      {"measurement": "IC50", "setting": "[10]", "value": 628, "unit": "nM"}
    ]},
    {"compound": "COC(=O)c1nc(N2CCN(c3ncccc3C(F)(F)F)CC2)[nH]c1-c1ccc(C(F)(F)F)cc1", "values": [
      {"measurement": "IC50", "setting": "[1]", "value": 180, "unit": "nM"},
      {"measurement": "IC50", "setting": "[10]", "value": 1170, "unit": "nM"}
    ]},
    {"compound": "O=C(NCC1CCCCN1)c1nc(N2CCN(c3ncccc3C(F)(F)F)CC2)[nH]c1-c1ccc(C(F)(F)F)cc1", "note": "(stereo not given)", "values": [
      {"measurement": "IC50", "setting": "[1]", "value": "> 4000", "unit": "nM"},
      {"measurement": "IC50", "setting": "[10]", "value": 2950, "unit": "nM"}
    ]},
    {"compound": "FC(F)(F)c1cccc(-c2[nH]c(N3CCN(c4ncccc4C(F)(F)F)CC3)nc2-c2ccccc2)c1", "values": [
      {"measurement": "IC50", "setting": "[1]", "value": 165, "unit": "nM"},
      {"measurement": "IC50", "setting": "[10]", "value": 1240, "unit": "nM"}
    ]},
    {"compound": "FC(F)(F)c1ccc(-c2nc(N3CCN(c4ncccc4C(F)(F)F)CC3)[nH]c2-c2ccc(C(F)(F)F)cc2)cc1", "values": [
      {"measurement": "IC50", "setting": "[1]", "value": 146, "unit": "nM"},
      {"measurement": "IC50", "setting": "[10]", "value": 573, "unit": "nM"}
    ]},
    {"compound": "Fc1cc(-c2nc(N3CCN(c4ncccc4C(F)(F)F)CC3)[nH]c2-c2cc(F)c(F)c(F)c2)cc(F)c1F", "values": [
      {"measurement": "IC50", "setting": "[1]", "value": 32, "unit": "nM"},
      {"measurement": "IC50", "setting": "[10]", "value": 44, "unit": "nM"}
    ]},
    {"compound": "OCc1cnc(N2CCN(c3nc(-c4ccccc4)c(-c4ccc(C(F)(F)F)cc4)[nH]3)CC2)c(Cl)c1", "values": [
      {"measurement": "IC50", "setting": "[1]", "value": 160, "unit": "nM"},
      {"measurement": "IC50", "setting": "[10]", "value": 90, "unit": "nM"}
    ]},
    {"compound": "C[C@@H]1CN(c2ncc(CO)cc2Cl)CCN1c1nc(-c2ccccc2)c(-c2ccc(C(F)(F)F)cc2)[nH]1", "values": [
      {"measurement": "IC50", "setting": "[1]", "value": 29, "unit": "nM"},
      {"measurement": "IC50", "setting": "[10]", "value": 26, "unit": "nM"}
    ]},
    {"compound": "C[C@@H]1CN(c2ncc(CO)cc2Cl)CCN1c1nc(-c2cc(F)c(F)c(F)c2)c(-c2ccc(C(F)(F)F)cc2)[nH]1", "values": [
      {"measurement": "IC50", "setting": "[1]", "value": 4, "unit": "nM"},
      {"measurement": "AUC(0-inf)", "setting": "[2]", "value": 1230, "unit": "ng·h/mL"},
      {"measurement": "clearance", "setting": "[3]", "value": 13.3, "unit": "mL/min/kg"},
      {"measurement": "half-life", "setting": "[4]", "value": 6.3, "unit": "h"},
      {"measurement": "Vd", "setting": "[5]", "value": 5.4, "unit": "L/kg"},
      {"measurement": "Cmax", "setting": "[6]", "value": 347, "unit": "ng/mL"},
      {"measurement": "Tmax", "setting": "[7]", "value": 4.7, "unit": "h"},
      {"measurement": "AUC(0-inf)", "setting": "[8]", "value": 2460, "unit": "ng·h/mL"},
      {"measurement": "bioavailability", "setting": "[9]", "value": 40, "unit": "%"},
      {"measurement": "IC50", "setting": "[10]", "value": 1, "unit": "nM"}
    ]},
    {"compound": "CC(C)N1CCN(C(=O)c2nc(N3CCN(c4ncccc4C(F)(F)F)CC3)[nH]c2-c2ccc(C(F)(F)F)cc2)CC1", "values": [
      {"measurement": "IC50", "setting": "[1]", "value": 1000, "unit": "nM"},
      {"measurement": "IC50", "setting": "[10]", "value": 700, "unit": "nM"}
    ]},
    {"compound": "CC(C)CN1CCCCC1CNC(=O)c1nc(N2CCN(c3ncccc3C(F)(F)F)CC2)[nH]c1-c1ccc(C(F)(F)F)cc1", "note": "(stereo not given)", "values": [
      {"measurement": "IC50", "setting": "[1]", "value": "> 4000", "unit": "nM"},
      {"measurement": "IC50", "setting": "[10]", "value": 1900, "unit": "nM"}
    ]},
    {"compound": "CCN1CCCC1CNC(=O)c1nc(N2CCN(c3ncccc3C(F)(F)F)CC2)[nH]c1-c1ccc(C(F)(F)F)cc1", "note": "(stereo not given)", "values": [
      {"measurement": "IC50", "setting": "[1]", "value": 3300, "unit": "nM"},
      {"measurement": "IC50", "setting": "[10]", "value": 4100, "unit": "nM"}
    ]},
    {"compound": "C[C@@H]1CN(c2ncccc2C(F)(F)F)CCN1c1nc(-c2ccccc2)c(-c2ccc(C(F)(F)F)cc2)[nH]1", "values": [
      {"measurement": "IC50", "setting": "[1]", "value": 341, "unit": "nM"},
      {"measurement": "IC50", "setting": "[10]", "value": 117, "unit": "nM"}
    ]},
    {"compound": "FC(F)(F)c1ccc(-c2c[nH]c(N3CCN(c4ncccc4C(F)(F)F)CC3)n2)cc1", "values": [
      {"measurement": "IC50", "setting": "[1]", "value": "> 4000", "unit": "nM"},
      {"measurement": "IC50", "setting": "[10]", "value": 861, "unit": "nM"}
    ]},
    {"compound": "FC(F)(F)c1ccc(-c2nc(N3CCN(c4ncccc4C(F)(F)F)CC3)[nH]c2Cl)cc1", "values": [
      {"measurement": "IC50", "setting": "[1]", "value": "> 4000", "unit": "nM"},
      {"measurement": "IC50", "setting": "[10]", "value": 160, "unit": "nM"}
    ]},
    {"compound": "Fc1cc(-c2nc(N3CCN(c4ncccc4C(F)(F)F)CC3)[nH]c2-c2ccc(C(F)(F)F)cc2)cc(F)c1F", "values": [
      {"measurement": "IC50", "setting": "[1]", "value": 20, "unit": "nM"},
      {"measurement": "AUC(0-inf)", "setting": "[2]", "value": 529, "unit": "ng·h/mL"},
      {"measurement": "clearance", "setting": "[3]", "value": 31.7, "unit": "mL/min/kg"},
      {"measurement": "half-life", "setting": "[4]", "value": 1.9, "unit": "h"},
      {"measurement": "Vd", "setting": "[5]", "value": 1.7, "unit": "L/kg"},
      {"measurement": "Cmax", "setting": "[6]", "value": 17, "unit": "ng/mL"},
      {"measurement": "Tmax", "setting": "[7]", "value": 1, "unit": "h"},
      {"measurement": "AUC(0-inf)", "setting": "[8]", "value": 80, "unit": "ng·h/mL"},
      {"measurement": "bioavailability", "setting": "[9]", "value": 3, "unit": "%"},
      {"measurement": "IC50", "setting": "[10]", "value": 7, "unit": "nM"}
    ]},
    {"compound": "Fc1cc(F)cc(-c2nc(N3CCN(c4ncccc4C(F)(F)F)CC3)[nH]c2-c2ccc(C(F)(F)F)cc2)c1", "values": [
      {"measurement": "IC50", "setting": "[1]", "value": 85, "unit": "nM"},
      {"measurement": "IC50", "setting": "[10]", "value": 35, "unit": "nM"}
    ]}
  ]
}
